Active and inactive are the calls of the source. The rule behind the calls is not given here.
Experiments:
MDA-MB-231 [1] = assay: Induction of cell cycle arrest in human MDA-MB-231 cells assessed as accumulation of cells at G0/G1 phase at 2 uM incubated for 24 hrs by RNase/PI staining based flow cytometry (reference value: 82.3 %); type: functional
Quadruplex DNA = assay: Binding affinity to KRAS G-quadruplex telomeric DNA (unknown origin) assessed as […] by measuring melting temperature by FRET assay; type: nucleic-acid assay
MDA-MB-231 [2] = assay: Induction of DNA damage in human MDA-MB-231 cells assessed as upregulation of ATM phosphorylation incubated for 24 hrs by Western blot analysis; type: functional, cell-based
MDA-MB-231 [3] = assay: Induction of apoptosis in human MDA-MB-231 cells assessed as increase in Annexin V-positive cells at 1 to 4 uM incubated for 24 hrs by Annexin V-633/PI staining based flow cytometry; type: functional, cell-based; details: dose 1-4 µM
4T1 = assay: Antitumor activity against mouse 4T1 cells implanted in BALB/c mouse assessed as damage in tumor tissue at 10 mg/kg,ip every other day for 14 days by hematoxylin and eosin staining analysis; type: functional, organism-based; details: time 14.0 day

CN(C)CCN(C)c1ccc(-c2nc3ccc(C(F)(F)F)cc3nc2-c2ccc(N(C)CCN(C)C)cc2)cc1 was tested, and the Activity (MDA-MB-231 [1]) was 81.6%, the Activity (Quadruplex DNA) was “Active” and the Activity (MDA-MB-231 [2]) was “Dose-Dependent Effect”. For the same compound, the Activity (MDA-MB-231 [3]) was “Active” and the Activity (4T1) was “Active”.

Reference: ChEMBL document CHEMBL5550165, “Novel quinoxaline analogs as telomeric G-quadruplex ligands exert antitumor effects related to enhanced immunomodulation” (Eur J Med Chem, 2024)
